Where two headings read alike, the source gives them in different places.
Columns and labels:
[1] = Saturation solubility in water; format: physicochemical
[2] = cited from earlier work

Row | Solubility in water under substantially physiological conditions ([1]; pH 5 to 7) | solubility ([1]; water, process liquid temperature of 17° C.) | Compound | Saturation solubility in water ([2]; 22° C.) | Saturation solubility in water ([2]; 37° C.)
1 | practically insoluble | ≤ 100 µg/mL | NS(=O)(=O)c1ccc(S(=O)(=O)Nc2cccc3c(Cl)c[nH]c23)cc1 [Drug A, N-(3-chloro-7-indolyl)-1,4-benzenedisulfonamide] |  | 
2 |  |  | COc1ccc(Cl)cc1C(=O)NCCc1ccc(S(=O)(=O)NC(=O)NC2CCCCC2)cc1 [Glibenclamide] | 5.9 µg/mL | 9.9 µg/mL

Source: patent publication US20080145431A1, “Medicinal Composition and Process for Producing the Same” (priority 2005, published 2008)
